Reference: PubChem BioAssay (NCI)
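The compound was tested at five concentrations on cells cultured in 96-well plates, with a 48-hour exposure period. The concentration for full growth arrest is given as TGI.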

Experiments:
Assay in all cases: NCI tumour cell line growth inhibition, 48 h
[1] = system: OVCAR-5 ovarian
[2] = system: DU-145 prostate
[3] = system: SN12C renal
[4] = system: ACHN renal
[5] = system: LOX IMVI melanoma
[6] = system: UO-31 renal
[7] = system: NCI-H226 lung
[8] = system: SF-295 CNS
[9] = system: MDA-MB-435
[10] = system: HS 578T breast

| Structure (SMILES) | TGI [1] [µM] | TGI [2] [µM] | TGI [3] [µM] | TGI [4] [µM] | TGI [5] [µM] | TGI [6] [µM] | TGI [7] [µM] | TGI [8] [µM] | TGI [9] [µM] | TGI [10] [µM] |
| --- | --- | --- | --- | --- | --- | --- | --- | --- | --- | --- |
| CC(C)(C)c1cc(OCc2nn3c(Cc4ccccc4)nnc3s2)c(Cl)cc1OCc1nn2c(Cc3ccccc3)nnc2s1 | > 100 | > 100 | > 100 | > 100 | > 100 | > 100 | > 100 | > 100 | > 100 | > 100 |
| CC(=O)Oc1c2c(c3n(c1=O)CCCC3)C(=O)N(c1ccccc1)C2=O | > 100 | > 100 | > 100 | > 100 | > 100 | > 100 | > 100 | > 100 | > 100 | > 100 |
| COc1ccc(C2C(C#N)=C(S)N(C3OC(COC(C)=O)C(OC(C)=O)C(OC(C)=O)C3OC(C)=O)C(c3ccccc3)=C2C(C)=O)cc1 (stereo not given) | > 100 | > 100 | > 100 | > 100 | > 100 | 99.5 | > 100 | > 100 | > 100 | > 100 |
| C=CCN(CCNS(=O)(=O)c1ccc(C)cc1)S(=O)(=O)c1ccc(C)cc1 | > 100 | > 100 | > 100 | > 100 | > 100 | > 100 | > 100 | > 100 | > 100 | > 100 |
| Cc1n[nH]c(=O)n1/N=C\c1ccccc1 | > 100 | > 100 | > 100 | > 100 | > 100 | > 100 | > 100 | > 100 | > 100 | > 100 |
| COc1cc2c3c(n(C)c(=O)c2cc1OC)-c1cc2c(cc1/C3=C\CCCI)OCO2 | > 100 | > 100 | > 100 | > 85.3 | > 100 | > 100 | > 100 | > 41.6 | > 100 | > 75.5 |
| O=c1ccn(C2OC(CO)C(O)C2F)c(=O)n1Cc1ccccc1 (stereo not given) | > 100 | > 100 | > 100 | > 100 | > 100 | > 100 | > 100 | > 100 | > 100 | > 100 |
| Cc1cc(S(=O)(=O)Nc2nnc3cnc4ccccc4n23)c(S)cc1Cl | > 100 | > 100 | > 100 | > 100 | > 100 | > 100 | > 100 | > 100 | > 100 | > 100 |
| Cc1cc(=O)n2nc(CCl)sc2n1 | 28.9 | 40.6 | 35 | 27.5 | 17.1 | 28.8 | 34.9 | 42.9 | 26.3 | 55.9 |
| Clc1cccc(NN=Nc2ccc(-c3nc4ccccc4s3)cc2)c1 | > 100 | > 100 | 62.2 | > 100 | > 100 | > 100 | > 100 | > 100 | > 100 | > 100 |
| CCOC(=O)C(NC(=O)c1ccccc1)(N1CCN(c2cc3c(cc2F)c(=O)c(C(=O)O)cn3CC)CC1)C(F)(F)F (stereo not given) | 45.3 | > 100 | > 100 | > 100 | 35.4 | 98.1 | 90.7 | > 100 | > 100 | > 100 |
| Cc1sc2c(c1C)/C(=N\O)c1cccn1-2 | > 100 | > 100 | > 100 | > 100 | > 100 | > 100 | > 100 | > 100 | > 100 | 46 |
| C=C(C)COC1CCCCO1 (stereo not given) | > 100 | > 100 | > 100 | > 100 | > 100 | > 100 | > 100 | > 100 | > 100 | > 100 |
| CCCCCCCCCCCCCCC(O)C[N+](C)(CCO)CCO (stereo not given) | 7.92 | 23.6 | 21.5 | 21.7 | 4.66 | 17 | 5.63 | 9.96 | 21.3 | 7.87 |
| O=c1[nH]cc(Cl)c(=O)[nH]1 | > 100 | > 100 | > 100 | > 100 | > 100 | > 100 | > 100 | > 100 | > 100 | > 100 |
| CC(=O)Oc1c(N2CCCCC2)c(C(=O)c2ccccc2)c(O)c2ccn(N(C)C)c12 | > 100 | 56.6 | 33.7 | 40.2 | 33.1 | 35.4 | 32.4 | 42.4 | 38.1 | 66.8 |
